Assay results reported in ChEMBL document CHEMBL1201861, “Genomics of Drug Sensitity in Cancer screening data, Wellcome Trust Sanger Institute”.

How the values were obtained:
Test in all cases: cells
Conditions in all cases: Homo sapiens
TE-10 = type: functional, cell-based;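 also: growth inhibition of TE-10 cells, measured by a cell viability assay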
Description: SANGER: Inhibition of human TE-10 cell growth in a cell viability assay.

DSH1 = type: functional, cell-based;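 also: growth inhibition of human DSH1 cells, measured with a cell viability readout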
Description: SANGER: Inhibition of human DSH1 cell growth in a cell viability assay.

MEG-01 = type: functional, cell-based;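 also: growth inhibition of MEG-01 cells, read out by a cell viability assay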
Description: SANGER: Inhibition of human MEG-01 cell growth in a cell viability assay.

COLO-824 = type: functional, cell-based
Description: SANGER: Inhibition of human COLO-824 cell growth in a cell viability assay.

BT-474 = type: functional, cell-based
Description: SANGER: Inhibition of human BT-474 cell growth in a cell viability assay.

LAMA-84 = type: functional, cell-based;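 also: growth inhibition of LAMA-84 cells, read out with a cell viability assay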
Description: SANGER: Inhibition of human LAMA-84 cell growth in a cell viability assay.

LB831-BLC = type: functional, cell-based;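 also: growth inhibition of LB831-BLC cells, read out with a cell viability assay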
Description: SANGER: Inhibition of human LB831-BLC cell growth in a cell viability assay.

ES4 = type: functional, cell-based;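 also: growth inhibition of human ES4 cells, read out by a cell viability assay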
Description: SANGER: Inhibition of human ES4 cell growth in a cell viability assay.

RH-1 = type: functional, cell-based;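 also: growth inhibition of human RH-1 cells, read out with a cell viability assay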
Description: SANGER: Inhibition of human RH-1 cell growth in a cell viability assay.

MN-60 = type: functional, cell-based;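 also: growth inhibition of the MN-60 cell line, determined with a cell viability assay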
Description: SANGER: Inhibition of human MN-60 cell growth in a cell viability assay.

KE-37 = type: functional, cell-based;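 also: growth inhibition of KE-37 cells, read out with a cell viability assay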
Description: SANGER: Inhibition of human KE-37 cell growth in a cell viability assay.

8-MG-BA = type: functional, cell-based;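 also: growth inhibition of 8-MG-BA cells, read out with a cell viability assay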
Description: SANGER: Inhibition of human 8-MG-BA cell growth in a cell viability assay.

NOMO-1 = type: functional, cell-based;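 also: growth inhibition of human NOMO-1 cells measured by a cell viability assay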
Description: SANGER: Inhibition of human NOMO-1 cell growth in a cell viability assay.

IST-MEL1 = type: functional, cell-based;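 also: growth inhibition of the cell line, read out with a cell viability assay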
Description: SANGER: Inhibition of human IST-MEL1 cell growth in a cell viability assay.

L-428 = type: functional, cell-based
Description: SANGER: Inhibition of human L-428 cell growth in a cell viability assay.

C2BBe1 = type: functional, cell-based;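 also: growth inhibition of C2BBe1 cells, read out through a viability assay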
Description: SANGER: Inhibition of human C2BBe1 cell growth in a cell viability assay.

A388 = type: functional, cell-based;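 also: growth inhibition of human A388 cells, read out with a cell viability assay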
Description: SANGER: Inhibition of human A388 cell growth in a cell viability assay.

KNS-42 = type: functional, cell-based;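 also: growth inhibition of KNS-42 cells, read out with a cell viability assay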
Description: SANGER: Inhibition of human KNS-42 cell growth in a cell viability assay.

OS-RC-2 = type: functional, cell-based;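 also: growth inhibition of human OS-RC-2 cells, measured by a cell viability assay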
Description: SANGER: Inhibition of human OS-RC-2 cell growth in a cell viability assay.

KM12 = type: functional, cell-based;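 also: KM12 cell growth inhibition, read out with a cell viability assay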
Description: SANGER: Inhibition of human KM12 cell growth in a cell viability assay.

TE-11 = type: functional, cell-based;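 also: growth inhibition of human TE-11 cells, read out by a cell viability assay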
Description: SANGER: Inhibition of human TE-11 cell growth in a cell viability assay.

NTERA-2-cl-D1 = type: functional, cell-based;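 also: inhibition of cell growth, measured with a cell viability assay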
Description: SANGER: Inhibition of human NTERA-S-cl-D1 cell growth in a cell viability assay.

A498 = type: functional, cell-based;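 also: growth inhibition of human A498 cells, read out with a cell viability assay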
Description: SANGER: Inhibition of human A498 cell growth in a cell viability assay.

LNCaP-Clone-FGC = type: functional, cell-based
Description: SANGER: Inhibition of human LNCaP-Clone-FGC cell growth in a cell viability assay.

SK-LMS-1 = type: functional, cell-based;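 also: growth inhibition of human SK-LMS-1 cells, read out with a cell viability assay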
Description: SANGER: Inhibition of human SK-LMS-1 cell growth in a cell viability assay.

COLO-684 = type: functional, cell-based
Description: SANGER: Inhibition of human COLO-684 cell growth in a cell viability assay.

ETK-1 = type: functional, cell-based;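 also: growth inhibition of human ETK-1 cells, read out with a cell viability assay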
Description: SANGER: Inhibition of human ETK-1 cell growth in a cell viability assay.

MHH-NB-11 = type: functional, cell-based;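 also: growth inhibition of human MHH-NB-11 cells, read out by a cell viability assay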
Description: SANGER: Inhibition of human MHH-NB-11 cell growth in a cell viability assay.

MFM-223 = type: functional, cell-based
Description: SANGER: Inhibition of human MFM-223 cell growth in a cell viability assay.

ES5 = type: functional, cell-based;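 also: growth inhibition of human ES5 cells, read out by a cell viability assay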
Description: SANGER: Inhibition of human ES5 cell growth in a cell viability assay.

Mo = type: functional, cell-based
Description: SANGER: Inhibition of human Mo-T cell growth in a cell viability assay.

BB49-HNC = type: functional, cell-based;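 also: cell viability assay read-out, reported as inhibition of BB49-HNC cell growth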
Description: SANGER: Inhibition of human BB49-HNC cell growth in a cell viability assay.

GT3TKB = type: functional, cell-based;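 also: growth inhibition of the cell line, read out with a cell viability assay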
Description: SANGER: Inhibition of human GT3TKB cell growth in a cell viability assay.

EW-13 = type: functional, cell-based;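 also: growth inhibition of EW-13 cells, read out with a cell viability assay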
Description: SANGER: Inhibition of human EW-13 cell growth in a cell viability assay.

HEL = type: functional, cell-based;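 also: growth inhibition of HEL cells, read out with a cell viability assay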
Description: SANGER: Inhibition of human HEL cell growth in a cell viability assay.

MMAC-SF = type: functional, cell-based;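 also: growth inhibition of human MMAC-SF cells, read out with a cell viability assay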
Description: SANGER: Inhibition of human MMAC-SF cell growth in a cell viability assay.

HL-60 = type: functional, cell-based;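 also: growth inhibition of human HL-60 cells, read out with a cell viability assay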
Description: SANGER: Inhibition of human HL-60 cell growth in a cell viability assay.

HuTu80 = type: functional, cell-based, HUTU-80;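 also: growth inhibition of HuTu80 human cells, determined with a cell viability readout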
Description: SANGER: Inhibition of human HUTU-80 cell growth in a cell viability assay.

SCH = type: functional, cell-based;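 also: growth inhibition of human SCH cells, read out in a cell viability assay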
Description: SANGER: Inhibition of human SCH cell growth in a cell viability assay.

EW-1 = type: functional, cell-based
Description: SANGER: Inhibition of human EW-1 cell growth in a cell viability assay.

KM-H2 = type: functional, cell-based;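 also: growth inhibition of KM-H2 cells, read out by a cell viability assay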
Description: SANGER: Inhibition of human KM-H2 cell growth in a cell viability assay.

RCC10RGB = type: functional, cell-based;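 also: growth inhibition of human RCC10RGB cells, read out by a cell viability assay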
Description: SANGER: Inhibition of human RCC10RGB cell growth in a cell viability assay.

SK-UT-1 = type: functional, cell-based;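 also: growth inhibition of SK-UT-1 cells, measured by a cell viability assay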
Description: SANGER: Inhibition of human SK-UT-1 cell growth in a cell viability assay.

A3-KAW = type: functional, cell-based;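 also: growth inhibition of human A3-KAW cells, read out with a cell viability assay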
Description: SANGER: Inhibition of human A3-KAW cell growth in a cell viability assay.

DOHH-2 = type: functional, cell-based;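 also: growth inhibition of human DOHH-2 cells, read out with a cell viability assay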
Description: SANGER: Inhibition of human DOHH-2 cell growth in a cell viability assay.

BE-13 = type: functional, cell-based;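 also: growth inhibition of human BE-13 cells, measured with a cell viability assay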
Description: SANGER: Inhibition of human BE-13 cell growth in a cell viability assay.

C8166 = type: functional, cell-based;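 also: growth inhibition of human C8166 cells measured by a cell viability assay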
Description: SANGER: Inhibition of human C8166 cell growth in a cell viability assay.

TE-6 = type: functional, cell-based;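 also: growth inhibition of TE-6 cells, read out with a cell viability assay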
Description: SANGER: Inhibition of human TE-6 cell growth in a cell viability assay.

OCUB-M = type: functional, cell-based;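 also: growth inhibition of the cancer cell line, read out through a cell viability assay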
Description: SANGER: Inhibition of human OCUB-M cell growth in a cell viability assay.

NCI-H82 = type: functional, cell-based;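 also: growth inhibition of NCI-H82 cells, measured with a cell viability readout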
Description: SANGER: Inhibition of human NCI-H82 cell growth in a cell viability assay.

JAR = type: functional, cell-based;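 also: growth inhibition of human JAR cells determined with a cell viability assay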
Description: SANGER: Inhibition of human JAR cell growth in a cell viability assay.

NCI-H1304 = type: functional, cell-based;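 also: growth inhibition of the cancer cell line, measured in a cell viability assay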
Description: SANGER: Inhibition of human NCI-H1304 cell growth in a cell viability assay.

A704 = type: functional, cell-based;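 also: growth inhibition of human A704 cells, read out with a cell viability assay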
Description: SANGER: Inhibition of human A704 cell growth in a cell viability assay.

KS-1 = type: functional, cell-based;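 also: growth inhibition of KS-1 cells, read out with a cell viability assay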
Description: SANGER: Inhibition of human KS-1 cell growth in a cell viability assay.

MOLT-16 = type: functional, cell-based;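 also: growth inhibition of human MOLT-16 cells, read out with a cell viability assay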
Description: SANGER: Inhibition of human MOLT-16 cell growth in a cell viability assay.

LXF-289 cell line = type: functional, cell-based
Description: SANGER: Inhibition of human LXF-289 cell growth in a cell viability assay.

D-263MG = type: functional, cell-based
Description: SANGER: Inhibition of human D-263MG cell growth in a cell viability assay.

CCRF-CEM = type: functional, cell-based;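 also: inhibition of CCRF-CEM cell growth, measured by a cell viability assay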
Description: SANGER: Inhibition of human CCRF-CEM cell growth in a cell viability assay.

LB1047-RCC = type: functional, cell-based;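 also: inhibition of cell growth, determined with a cell viability assay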
Description: SANGER: Inhibition of human LB1047-RCC cell growth in a cell viability assay.

KARPAS-45 = type: functional, cell-based;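 also: inhibition of cell line growth, read out through a viability assay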
Description: SANGER: Inhibition of human KARPAS-45 cell growth in a cell viability assay.

SNU-5 = type: functional, cell-based
Description: SANGER: Inhibition of human NCI-SNU-5 cell growth in a cell viability assay.

CTV-1 = type: functional, cell-based
Description: SANGER: Inhibition of human CTV-1 cell growth in a cell viability assay.

KMOE-2 = type: functional, cell-based
Description: SANGER: Inhibition of human KMOE-2 cell growth in a cell viability assay.

BV-173 = type: functional, cell-based
Description: SANGER: Inhibition of human BV-173 cell growth in a cell viability assay.

COR-L88 = type: functional, cell-based
Description: SANGER: Inhibition of human COR-L88 cell growth in a cell viability assay.

KY821 = type: functional, cell-based
Description: SANGER: Inhibition of human KY821 cell growth in a cell viability assay.

`O=c1cc(N2CCOCC2)oc2c(-c3cccc4c3sc3ccccc34)cccc12` gave an IC50 (TE-10) of over 2 µM, an IC50 (DSH1) of over 2 µM and an IC50 (MEG-01) of over 2 µM. The IC50 (COLO-824) was over 2 µM, the IC50 (BT-474) was over 2 µM and the IC50 (LAMA-84) was 0.988 µM. The IC50 (LB831-BLC) was over 2 µM, the IC50 (ES4) was over 2 µM and the IC50 (RH-1) was over 2 µM. For the same molecule, the IC50 (MN-60) was over 2 µM, the IC50 (KE-37) was over 2 µM and the IC50 (8-MG-BA) was over 2 µM. The IC50 (NOMO-1) was over 2 µM, the IC50 (IST-MEL1) was over 2 µM and the IC50 (L-428) was over 2 µM. It also gave an IC50 (C2BBe1) of over 2 µM, an IC50 (A388) of over 2 µM and an IC50 (KNS-42) of over 2 µM. It also gave an IC50 (OS-RC-2) of over 2 µM, an IC50 (KM12) of over 2 µM and an IC50 (TE-11) of over 2 µM. The IC50 (NTERA-2-cl-D1) was over 2 µM, the IC50 (A498) was over 2 µM and the IC50 (LNCaP-Clone-FGC) was over 2 µM. It also gave an IC50 (SK-LMS-1) of over 2 µM, an IC50 (COLO-684) of over 2 µM and an IC50 (ETK-1) of over 2 µM. It also gave an IC50 (MHH-NB-11) of over 2 µM, an IC50 (MFM-223) of over 2 µM and an IC50 (ES5) of over 2 µM. The IC50 (Mo) was over 2 µM, the IC50 (BB49-HNC) was over 2 µM and the IC50 (GT3TKB) was over 2 µM. The IC50 (EW-13) was over 2 µM, the IC50 (HEL) was over 2 µM and the IC50 (MMAC-SF) was over 2 µM. It also gave an IC50 (HL-60) of 1.38 µM, an IC50 (HuTu80) of over 2 µM and an IC50 (SCH) of over 2 µM. The IC50 (EW-1) was over 2 µM, the IC50 (KM-H2) was over 2 µM and the IC50 (RCC10RGB) was over 2 µM. It also gave an IC50 (SK-UT-1) of over 2 µM, an IC50 (A3-KAW) of over 2 µM and an IC50 (DOHH-2) of over 2 µM. For the same molecule, the IC50 (BE-13) was over 2 µM, the IC50 (C8166) was over 2 µM and the IC50 (TE-6) was over 2 µM. The IC50 (OCUB-M) was over 2 µM, the IC50 (NCI-H82) was over 2 µM and the IC50 (JAR) was over 2 µM. It also gave an IC50 (NCI-H1304) of over 2 µM, an IC50 (A704) of over 2 µM and an IC50 (KS-1) of over 2 µM. It also gave an IC50 (MOLT-16) of over 2 µM, an IC50 (LXF-289 cell line) of over 2 µM and an IC50 (D-263MG) of over 2 µM. For the same molecule, the IC50 (CCRF-CEM) was over 2 µM and the IC50 (LB1047-RCC) was over 2 µM.

`NC(=O)c1ncn([C@@H]2O[C@H](COP(=O)(O)O)[C@@H](O)[C@H]2O)c1N` was tested, and the IC50 (TE-10) was 1510 µM, the IC50 (DSH1) was over 2000 µM and the IC50 (KARPAS-45) was 1410 µM. The IC50 (MEG-01) was 447 µM, the IC50 (COLO-824) was 1130 µM and the IC50 (BT-474) was over 2000 µM. The IC50 (LAMA-84) was 435 µM, the IC50 (LB831-BLC) was over 2000 µM and the IC50 (ES4) was 1770 µM. For the same molecule, the IC50 (RH-1) was over 2000 µM, the IC50 (MN-60) was over 2000 µM and the IC50 (KE-37) was 534 µM. The IC50 (SNU-5) was over 2000 µM, the IC50 (8-MG-BA) was over 2000 µM and the IC50 (NOMO-1) was 847 µM. It also gave an IC50 (IST-MEL1) of over 2000 µM, an IC50 (L-428) of over 2000 µM and an IC50 (C2BBe1) of 597 µM. It also gave an IC50 (A388) of over 2000 µM, an IC50 (KNS-42) of over 2000 µM and an IC50 (OS-RC-2) of over 2000 µM. It also gave an IC50 (KM12) of over 2000 µM, an IC50 (TE-11) of 587 µM and an IC50 (NTERA-2-cl-D1) of over 2000 µM. It also gave an IC50 (A498) of over 2000 µM, an IC50 (LNCaP-Clone-FGC) of over 2000 µM and an IC50 (CTV-1) of 266 µM. The IC50 (COLO-684) was 894 µM, the IC50 (ETK-1) was 541 µM and the IC50 (MHH-NB-11) was 1110 µM. For the same molecule, the IC50 (MFM-223) was 1160 µM, the IC50 (ES5) was over 2000 µM and the IC50 (Mo) was over 2000 µM. For the same molecule, the IC50 (BB49-HNC) was over 2000 µM, the IC50 (GT3TKB) was over 2000 µM and the IC50 (EW-13) was over 2000 µM. For the same molecule, the IC50 (HEL) was 804 µM, the IC50 (MMAC-SF) was over 2000 µM and the IC50 (HL-60) was 376 µM. The IC50 (HuTu80) was over 2000 µM, the IC50 (SCH) was over 2000 µM and the IC50 (EW-1) was 1870 µM. It also gave an IC50 (KMOE-2) of 415 µM, an IC50 (KM-H2) of 1170 µM and an IC50 (RCC10RGB) of over 2000 µM. It also gave an IC50 (SK-UT-1) of over 2000 µM, an IC50 (A3-KAW) of 368 µM and an IC50 (DOHH-2) of 1310 µM. For the same molecule, the IC50 (BE-13) was 365 µM, the IC50 (C8166) was 1170 µM and the IC50 (TE-6) was over 2000 µM. For the same molecule, the IC50 (OCUB-M) was 1190 µM, the IC50 (NCI-H82) was 993 µM and the IC50 (JAR) was 346 µM. For the same molecule, the IC50 (NCI-H1304) was over 2000 µM, the IC50 (A704) was over 2000 µM and the IC50 (KS-1) was 1250 µM. It also gave an IC50 (MOLT-16) of over 2000 µM, an IC50 (BV-173) of 93.8 µM and an IC50 (D-263MG) of over 2000 µM. The IC50 (CCRF-CEM) was over 2000 µM and the IC50 (LB1047-RCC) was over 2000 µM.

In the case of `CC[C@@]1(O)C(=O)OCc2c1cc1n(c2=O)Cc2cc3ccccc3nc2-1` [CAMPTOTHECIN], the IC50 (DSH1) is reported as 0.0158 µM, the IC50 (MEG-01) is reported as 0.0395 µM and the IC50 (BT-474) is reported as over 0.1 µM. For the same molecule, the IC50 (LAMA-84) was 0.00702 µM, the IC50 (LB831-BLC) was 0.0184 µM and the IC50 (ES4) was 0.00147 µM. The IC50 (RH-1) was 0.00386 µM, the IC50 (MN-60) was 0.00508 µM and the IC50 (KE-37) was 0.00154 µM. For the same molecule, the IC50 (SNU-5) was 0.0427 µM, the IC50 (8-MG-BA) was 0.0015 µM and the IC50 (NOMO-1) was 0.00156 µM. For the same molecule, the IC50 (IST-MEL1) was 0.00381 µM, the IC50 (C2BBe1) was 0.00244 µM and the IC50 (A388) was 0.0101 µM. It also gave an IC50 (KNS-42) of 0.0331 µM, an IC50 (OS-RC-2) of 0.00997 µM and an IC50 (KM12) of 0.075 µM. The IC50 (TE-11) was 0.0163 µM, the IC50 (NTERA-2-cl-D1) was 0.000274 µM and the IC50 (A498) was 0.00708 µM. It also gave an IC50 (LNCaP-Clone-FGC) of 0.031 µM, an IC50 (CTV-1) of 0.000905 µM and an IC50 (COLO-684) of 0.0138 µM. It also gave an IC50 (ETK-1) of 0.0349 µM, an IC50 (MHH-NB-11) of 0.000842 µM and an IC50 (MFM-223) of over 0.1 µM. It also gave an IC50 (ES5) of 0.000774 µM, an IC50 (GT3TKB) of 0.00176 µM and an IC50 (EW-13) of 0.00327 µM. It also gave an IC50 (HEL) of 0.00631 µM, an IC50 (MMAC-SF) of 0.0384 µM and an IC50 (HL-60) of 0.00373 µM. It also gave an IC50 (COR-L88) of 0.0409 µM, an IC50 (HuTu80) of 0.00338 µM and an IC50 (SCH) of over 0.1 µM. It also gave an IC50 (EW-1) of 0.00178 µM, an IC50 (KMOE-2) of 0.0113 µM and an IC50 (KM-H2) of 0.0557 µM. For the same molecule, the IC50 (SK-UT-1) was 0.00307 µM, the IC50 (A3-KAW) was 0.00167 µM and the IC50 (DOHH-2) was 0.000602 µM. The IC50 (BE-13) was 0.00456 µM, the IC50 (C8166) was 0.0415 µM and the IC50 (KY821) was 0.00812 µM. The IC50 (OCUB-M) was 0.0381 µM, the IC50 (NCI-H82) was over 0.1 µM and the IC50 (JAR) was 0.0145 µM. The IC50 (NCI-H1304) was 0.0593 µM, the IC50 (A704) was 0.0154 µM and the IC50 (KS-1) was 0.0579 µM. It also gave an IC50 (MOLT-16) of 0.000732 µM, an IC50 (BV-173) of 0.00238 µM and an IC50 (LXF-289 cell line) of 0.00705 µM. It also gave an IC50 (D-263MG) of 0.00911 µM, an IC50 (CCRF-CEM) of 0.00555 µM and an IC50 (LB1047-RCC) of 0.0079 µM.
